Experimental data: patent US7795505B2, “Herbicide-resistance gene and utilization thereof” (Hokko Chemical Industry Co., Ltd., priority 2004, dated 2010)

How the values were obtained:
[1] = test system: enzyme capable of acetylating PPT of Streptomyces sp. AB3534 strain (pUC18-B2); test: Acetylation reaction with crude enzyme solution from E. coli transformed with pUC18-B2 (absorbance at 412 nm); format: biochemical; conditions: substrate specificity, vector pUC18-B2 (present invention)
Protocol: (§1) Escherichia coli transformed with pUC18-B2 having the herbicide-resistance gene of the present invention was inoculated into a liquid medium containing 50 ml of LB medium and 50 mg/L ampicillin, and cultured at 37° C. for 1 hour, and 50 μl of a 1 M thiogalactopyranoside solution was added to the culture solution, followed by culture at 37° C. for 3 hours. After completion of the culture, the culture solution was centrifuged at 5,000 rpm for 15 minutes to collect bacterial cells, and the cells were washed once with physiological saline. Then, the washed bacterial cells were suspended in 2 ml of a 20 mM Trisbuffer (pH 8.0) solution and disrupted by ultrasonic waves at 4° C. The solution was centrifuged at 15,000 rpm for 15 minutes to collect the supernatant. The supernatant was diluted 10-fold with 20 mM Tris buffer (pH 8.0) to prepare a crude enzyme solution. Then, 2 μl of the crude solution was added to 98 μl of a reaction solution, and the mixture was allowed to react at 28° C. for 1 hour, followed by measurement of the absorbance at 412 nm to measure the acetylation reaction. […]
(§2) The optimum pH and substrate specificity (Km value) to PPT and a structural homologue thereof, methionine sulfone (MS) were measured, and the results are shown in Table 2.

[2] = test system: enzyme capable of acetylating PPT derived from actinomycete AB2253 strain (pUC19-AB); test: Acetylation reaction with crude enzyme solution from E. coli transformed with pUC19-AB; format: biochemical; conditions: substrate specificity, vector pUC19-AB (control)
Protocol: as §1, §2

[3] = test system: Streptomyces lividans introduced with hybrid plasmid pBRB1; test: Bialaphos resistance of transformants; format: cell-based; conditions: all transformants with pBRB1
Protocol: The hybrid plasmid mixture thus obtained was used to transform a protoplast of Streptomyces lividans. The protoplast was regenerated, and then transformed strains having a bialaphos resistance were selected on a selective medium containing 10 mg/L bialaphos. The Streptomyces lividans used above as a host is a bacterial strain obtained by removing a plasmid pIJ703 from Streptomyces lividans 3131 by protoplastization and regeneration. Streptomyces lividans 3131 was obtained from Department of Antibiotics, National Institute of Health in 1985 (“The Journal of Antibiotics” 1985, vol. 38, pp. 390-400). […]
From the resultant two bialaphos-resistant strains, plasmids were extracted in accordance with a known method (“Current Topics in Microbiology and Immunology” 1982, vol. 96, pp. 69). […] These plasmids derived from the two strains were separately cleaved with a restriction enzyme BglII and analyzed by agarose electrophoresis. In both cases, the electrophoresis detected not only the DNA fragment of pIJ703 used in the vector but also an about 5.7-kb DNA fragment. […]

[4] = test system: Escherichia coli transformed with pUC18-B2; test: Growth on M9 agar medium containing bialaphos; format: cell-based; conditions: 1 mM IPTG, 10 mg/L bialaphos
Protocol: That is, the plasmid pUC18-B1 was cleaved with restriction enzymes EcoRI and SmaI (20 units each) at 37° C. for 2 hours and subjected to agarose electrophoresis, and only a 0.6 kb-fragment was cut and purified using GeneClean. On the other hand, 2 μg of the plasmid pUC18 was cleaved with EcoRI and SmaI (20 units each) at 37° C. for 2 hours, and the fragments were purified using GeneClean (manufactured by Bio101). The DNA fragments were allowed to react using Takara Ligation kit at 16° C. for 3 hours, to thereby yield a solution of the plasmid pUC18-B2 obtained by integrating the about 0.6-kb EcoRI, SmaI-cleaved DNA fragment derived from pBRB1 into the EcoRI, SmaI-cleaved DNA fragment of the plasmid pUC18. […] The nucleotide sequence was determined by custom DNA sequencing service (Hokkaido System Science Co., Ltd.).

[5] = test system: Escherichia coli transformed with pUC18-B1; test: Growth on M9 agar medium containing bialaphos; format: cell-based; conditions: 1 mM IPTG, 10 mg/L bialaphos
Protocol: The about 1.2-kb EcoRI-BglII fragment that had been confirmed to have a bialaphos-resistance gene was ligated to the EcoRI-BamHI site of a commercially available plasmid vector pUC18, and the resultant plasmid was introduced into Escherichia coli, to thereby yield a transformed Escherichia coli strain having a resistance to bialaphos. A deletion plasmid was prepared by using the SmaI site in the about 1.2-kb EcoRI, BglII fragment and was used to transform Escherichia coli, and as a result, the herbicide-resistance gene of the present invention was confirmed to be present on an about 0.6-kb EcoRI-SmaI fragment. 2 μg of the hybrid plasmid pBRB1 was cleaved with restriction enzymes EcoRI and BglII (20 units each) at 37° C. for 2 hours and subjected to agarose electrophoresis, and only a 1.2 kb-fragment was cut and purified using GeneClean. On the other hand, 2 μg of the plasmid pUC18 was cleaved with EcoRI and BamHI (20 units each) at 37° C. for 2 hours, and the fragments were purified using GeneClean (manufactured by Bio101). […]
That is, the plasmid pUC18-B1 was cleaved with restriction enzymes EcoRI and SmaI (20 units each) at 37° C. for 2 hours and subjected to agarose electrophoresis, and only a 0.6 kb-fragment was cut and purified using GeneClean. […] The nucleotide sequence was determined by custom DNA sequencing service (Hokkaido System Science Co., Ltd.).

[6] = test system: CP(=O)(O)CC[C@H](N)C(=O)O; test: cells, lysate or membranes named; conditions: other: substrate specificity; crude enzyme, vector pUC19-SH (control); pH 8.0
Protocol: as §1, §2

Compound: CP(=O)(O)CC[C@H](N)C(=O)O (racemic) [PPT, phosphinothricin]
- Km [1]: 2460 µM
- Km [2]: 14300 µM

Compound: CS(=O)(=O)CC[C@H](N)C(=O)O [MS, methionine sulfone]
- Km [1]: 13000 µM
- Km [2]: 2200 µM

Compound: C[C@H](NC(=O)[C@H](C)NC(=O)[C@@H](N)CCP(C)(=O)O)C(=O)O [bialaphos]
- resistance of transformants to bialaphos [3]: all the resultant transformants were found to have a resistance to bialaphos
- growth on medium containing bialaphos [4]: found to grow
- growth on medium containing bialaphos [5]: found to grow

Compound: enzyme capable of acetylating PPT derived from Streptomyces hygroscopicus (pUC19-SH) (Streptomyces hygroscopicus)
- Km [6]: 90 µM
